The values that follow come from paper PMC10254193, “Early Molecular Insights into Thanatin Analogues Binding to A. baumannii LptA” (Molecules, 2023).

The target in test [1] is LptAm(Ab)2.0. Kind of test: Fluorescence polarization direct binding assay. More on the design: species or system A. baumannii. Conditions: direct FP, than-FL 5 µM, LptAm(Ab)2.0 serial dilution, FP buffer 50 mM NaPi pH 7, 150 mM NaCl, 0.05% Tween20, overnight 4 °C, read at 25 °C, triplicate; read-out: KD ± 95CI. An excerpt:
As previously mentioned, a second A. baumannii LptA protein construct (LptAm(Ab)2.0), truncated at G159 of the C-terminus had improved monomeric behavior in solution and was used for binding affinity assays. The protein underwent routine checks for purity via a Coomassie-stained SDS-PAGE (Figure S1), and its binding to 7 in a titration series was observed using analytical SEC (Figure 2B), before proceeding with fluorescence polarization (FP). The fluorescent label, Alexa647, was conjugated to thanatin at the first position, as described in [24]. […]
Protein stocks were purified and concentrated in SEC buffer (50 mM NaPi pH 7, 150 mM NaCl), and if necessary diluted to the desired concentration using FP buffer (50 mM NaPi pH 7, 150 mM NaCl, 0.05% Tween20). […] Plates were left to incubate overnight at 4 °C before fluorescence polarization (FP) measurements. Anisotropy was measured using the Tecan Safire^2 plate reader using a 10 nm bandwidth and setting the excitation and emission wavelengths to 635 nm and 670 nm, respectively. The G-factor (G) was also determined empirically as 1.094 for the instrument and included in all the anisotropy calculations.
For direct binding assays, fluorescence anisotropy (r) was calculated using the parallel and perpendicular polarized intensities using the equation r=I∥−I⊥∗G/I∥+2I⊥∗G . […]
A general note: Fluorescence polarisation rises when a labelled molecule tumbles more slowly, as on binding a larger partner.

The subject of a further test is E. coli ATCC 25922. It is filed as cell-based. An excerpt: Table 1 LptA sequence identity to E. coli and MIC values (µg/mL). | column: E. coli ATCC 25922
For a further test, the system named is K. pneumoniae ATCC 43816. Format: cell-based. From the text:
Table 1 LptA sequence identity to E. coli and MIC values (µg/mL). | column: K. pneumoniae ATCC 43816

A further test relates to A. baumannii DSM 30008. It is filed as cell-based. An excerpt: Table 1 LptA sequence identity to E. coli and MIC values (µg/mL). | column: A. baumannii DSM 30008
A further test has as its system P. aeruginosa ATCC 27853. It is filed as cell-based. An excerpt: Table 1 LptA sequence identity to E. coli and MIC values (µg/mL). | column: P. aeruginosa ATCC 27853
Test [2] deals with LptAm(Ab)2.0. The test can be described thus: Fluorescence polarization competition (indirect) binding assay, displacement of than-FL. Set-up: species or system A. baumannii. Conditions: competition FP, than-FL 10 µM, triplicate; for IC50: 1:1 LptAm(Ab)2.0 and than-FL, FP buffer pH 7, overnight 4 °C, read at 25 °C, read-out: IC50 ± 95CI; for Ki: from IC50 and KD of than-FL by Cheng–Prusoff equation, read-out: KI ± 95CI. How it is done: The dissociation constant (KD) of than-FL was first determined in a direct binding assay and measured as 3.7 ± 0.5 µM (Figure 5, left) (Table 3). Subsequently, competitive binding assays were performed to determine the inhibition constants (KIs) of the unlabeled thanatin derivatives 1, 2, 5, 6, and 7. For each thanatin derivative tested, a serial dilution was prepared in triplicate on a single 96-well plate, to which a 1:1 mixture of LptAm(Ab)2.0 and than-FL was added. […] Determination of the KIs was achieved from the empirically derived IC50 values and KD of than-FL using the Cheng–Prusoff equation [27].
Protein stocks were purified and concentrated in SEC buffer (50 mM NaPi pH 7, 150 mM NaCl), and if necessary diluted to the desired concentration using FP buffer (50 mM NaPi pH 7, 150 mM NaCl, 0.05% Tween20). Peptide stocks and fluorescently labeled peptide stocks were made in FP buffer. A 1:1 serial dilution of 24 wells was prepared first by adding 100 µL of the unlabeled protein (e.g., LptAm(Ab)2.0) or peptide (e.g., 1, 2, 5–7), starting at high concentrations, 100–500 µM, in well one. Then, 50 µL was taken from the first well and added to 50 µL of FP buffer in the subsequent well, homogenized and repeated for the remaining of the 24-well series. Then, 50 µL of 2x stock of the fluorescently labeled thanatin (than-FL) was added to the dilution series. For the direct binding assays, 10 µM than-FL was used as the 2x stock, and for the indirect binding assays, a 1:1 mixture of 20 µM Lpt protein variant and 20 µM than-FL was used as the 2x stock; the final working concentrations of the than-FL were 5 µM and 10 µM, respectively. Plates were left to incubate overnight at 4 °C before fluorescence polarization (FP) measurements. Anisotropy was measured using the Tecan Safire^2 plate reader using a 10 nm bandwidth and setting the excitation and emission wavelengths to 635 nm and 670 nm, respectively. The G-factor (G) was also determined empirically as 1.094 for the instrument and included in all the anisotropy calculations.
For the indirect binding assays, r was calculated in the same manner as the direct binding assays. To control for non-specific binding between than-FL and competitors, than-FL alone was added to a replicate dilution series of the unlabeled peptide on the same plate. The control was subtracted from r to yield r’. Data were fit to a sigmoidal interpolation model on GraphPad Prism 9, and an IC50 was generated for each unlabeled peptide or protein measured. The inhibition constants (Kis) were calculated using the Cheng–Prusoff equation, Ki=IC50×1+LT/KD^−1 , in which the total concentration of than-FL (LT) was used as well as the KD previously derived from the peptide’s cognate direct binding assay.

The target in test [3] is T1, A. baumannii LptAm2.0 (LptAm(Ab)2.0) (A. baumannii ATCC 17978, UniProt V5VEZ9 33-159).
T1 construct: LptA of A. baumannii ATCC 17978, L33 to G159: as LptAm(Ab)1.0 with a further 5-residue truncation at the C-terminus; source: E. coli BL21(DE3), purified (two-step NiNTA with TEV cleavage); not shown: GB1 (protein G B1 domain), N-terminal, cleaved; His tag, N-terminal, cleaved
T1 sequence: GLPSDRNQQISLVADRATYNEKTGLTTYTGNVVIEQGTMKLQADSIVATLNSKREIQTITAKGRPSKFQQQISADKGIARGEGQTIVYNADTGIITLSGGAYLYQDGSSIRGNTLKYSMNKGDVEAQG
The test can be described thus: fluorescence polarisation; competition: unlabeled peptide serially diluted, 1:1 mixture of LptAm(Ab)2.0 and than-FL added (than-FL 10 µM final); 50 mM NaPi pH 7, 150 mM NaCl, 0.05% Tween20; KI from IC50 by the Cheng-Prusoff equation. Conditions: both partners purified.

The target in test [4] is than-FL (fluorescently labeled thanatin, Alexa647). Kind of test: fluorescence polarisation; direct binding: LptAm(Ab)2.0 serially diluted, than-FL 5 µM; 50 mM NaPi pH 7, 150 mM NaCl, 0.05% Tween20; incubated overnight at 4 °C, executed at ambient temperature (25 °C); One site - Total fit.

Converted amounts (≈) assume the structure as drawn. Bridge positions count the residues as written; N and C are the ends. Square brackets hold non-standard residues; d marks the D form. Peptide text beside a SMILES is read from it. Hyp = O=C(O)[C@@H]1C[C@@H](O)CN1; Pen = CC(C)(S)[C@H](N)C(=O)O; dDab = NCC[C@@H](N)C(=O)O; Nle = CCCC[C@H](N)C(=O)O; Dab = NCC[C@H](N)C(=O)O

By Kd is commonly meant a measure of binding affinity in units of concentration. For “Than-FL: fluorescently labeled thanatin, Alexa647 conjugated at the first position; reporter in all FP assays”, the dissociation constant Kd on LptAm(Ab)2.0 [1] was 3.7 ± 0.5 µM.

A word on the MIC: it is the lowest concentration that inhibits growth of the organism. As usually defined, the IC50 is the concentration that gives 50% inhibition. What is called Ki is a measure of affinity in units of concentration, obtained from inhibition or displacement. For `CC[C@H](C)[C@H](NC(=O)[C@@H]1C[C@@H](O)CN1C(=O)[C@@H](N)C(C)C)C(=O)N[C@H](C(=O)N[C@@H](Cc1ccc(O)cc1)C(=O)N[C@@H]1C(=O)N[C@@H](CC(N)=O)C(=O)N[C@@H](CCCNC(=N)N)C(=O)N[C@@H](CCN)C(=O)N[C@@H]([C@@H](C)O)C(=O)N[C@H](CCN)C(=O)N[C@@H](CCCCN)C(=O)N[C@H](C(=O)N[C@@H](CCN)C(=O)N[C@@H](CCCNC(=N)N)C(=O)N[C@@H](Cc2ccc(O)cc2)C(=O)O)CSSC1(C)C)[C@@H](C)O` [Peptide 6] (H-V[Hyp]ITY[Pen]NR[Dab]T[dDab]KC[Dab]RY-OH; disulfide 6-13; N-terminus and C-terminus assumed), the minimal inhibitory concentration (MIC) in the test on E. coli ATCC 25922 is 0.125 µg/mL (≈ 0.0638 µM); in the test with K. pneumoniae ATCC 43816 it was 0.250 µg/mL (≈ 0.128 µM); against A. baumannii DSM 30008, greater than 32 µg/mL; in the test on P. aeruginosa ATCC 27853, greater than 32 µg/mL. Besides, at LptAm(Ab)2.0 [2], the IC50 came out at 15.4 ± 1.3 µM. The Ki on LptAm(Ab)2.0 [2] is 4.1 ± 0.4 µM.

Take `CC[C@H](C)[C@H](NC(=O)[C@@H](NC(=O)[C@@H]1C[C@@H](O)CN1C(=O)[C@@H](N)C(C)C)[C@@H](C)CC)C(=O)N[C@@H](Cc1ccc(O)cc1)C(=O)N[C@@H]1C(=O)N[C@@H](CC(N)=O)C(=O)N[C@@H](CCCNC(=N)N)C(=O)N[C@@H](CCN)C(=O)N[C@@H]([C@@H](C)O)C(=O)N[C@H](CCN)C(=O)N[C@@H](CCCCN)C(=O)N[C@H](C(=O)N[C@@H](CCN)C(=O)N[C@@H](CCN)C(=O)N[C@@H](Cc2ccc(O)cc2)C(=O)O)CSSC1(C)C` [Peptide 5] (H-V[Hyp]IIY[Pen]NR[Dab]T[dDab]KC[Dab][Dab]Y-OH; disulfide 6-13; N-terminus and C-terminus assumed): the MIC against E. coli ATCC 25922 was 0.063 µg/mL (≈ 0.0329 µM); against K. pneumoniae ATCC 43816 it was 0.250 µg/mL (≈ 0.131 µM); against A. baumannii DSM 30008 it was greater than 32 µg/mL; against P. aeruginosa ATCC 27853, greater than 32 µg/mL. The IC50 on LptAm(Ab)2.0 [2] was 11.5 ± 0.7 µM. Also, the inhibition constant Ki on LptAm(Ab)2.0 [2] was found to be 3.1 ± 0.2 µM.

Consider `CC[C@H](C)[C@H](NC(=O)[C@@H](NC(=O)[C@@H]1CCCN1C(=O)[C@@H](NC(=O)[C@@H]1CCCN1C(=O)[C@H](CCCCN)NC(=O)[C@@H](N)CCCCN)C(C)C)[C@@H](C)CC)C(=O)N[C@@H](Cc1ccc(O)cc1)C(=O)N[C@@H]1C(=O)N[C@@H](CC(N)=O)C(=O)N[C@@H](CCCNC(=N)N)C(=O)N[C@@H](CCN)C(=O)N[C@@H]([C@@H](C)O)C(=O)N[C@H](CCN)C(=O)N[C@@H](CCCCN)C(=O)N[C@H](C(=O)N[C@@H](CCN)C(=O)N[C@@H](CCCNC(=N)N)C(=O)N[C@@H](Cc2ccc(O)cc2)C(=O)O)CSSC1(C)C` [Peptide 2] (H-KKPVPIIY[Pen]NR[Dab]T[dDab]KC[Dab]RY-OH; disulfide 9-16; N-terminus and C-terminus assumed), for which the MIC against E. coli ATCC 25922 is 0.031 µg/mL (≈ 0.0134 µM); against K. pneumoniae ATCC 43816, 0.125 µg/mL (≈ 0.0541 µM); in the test on A. baumannii DSM 30008, greater than 32 µg/mL; in the test with P. aeruginosa ATCC 27853 it was greater than 32 µg/mL. On LptAm(Ab)2.0 [2], the IC50 stood at 24.1 ± 6.3 µM. The inhibitory constant (Ki) on LptAm(Ab)2.0 [2] worked out at 6.5 ± 1.7 µM.

Regarding `CCCC[C@H](NC(=O)[C@H](CCCNC(=N)N)NC(=O)[C@H](CCN)NC(=O)[C@@H]1CSSC[C@H](NC(=O)[C@H](Cc2ccc(O)cc2)NC(=O)[C@@H](NC(=O)[C@@H](NC(=O)[C@@H]2CCCN2C(=O)[C@@H](NC(=O)[C@@H]2CCCN2C(=O)[C@H](CCCCN)NC(=O)[C@@H](N)CCCCN)C(C)C)[C@@H](C)CC)[C@@H](C)CC)C(=O)N[C@@H](CC(N)=O)C(=O)N[C@@H](CCCNC(=N)N)C(=O)N[C@@H](CCCNC(=N)N)C(=O)N[C@@H]([C@@H](C)O)C(=O)NCC(=O)N[C@@H](CCCCN)C(=O)N1)C(=O)O` [Peptide 1] (H-KKPVPIIYCNRRTGKC[Dab]R[Nle]-OH; disulfide 9-16), the MIC is recorded as 0.063 µg/mL (≈ 0.0281 µM) with E. coli ATCC 25922, 0.250 µg/mL (≈ 0.111 µM) in the test with K. pneumoniae ATCC 43816, greater than 32 µg/mL in the test on A. baumannii DSM 30008 and greater than 64 µg/mL with P. aeruginosa ATCC 27853.

B1: Thanatin (peptide)
peptide: GSKKPVPIIYCNRRTGKCQRM
notes: thanatin, the naturally occurring 21-mer; positions 1′-21′; also called native thanatin
Consider B1, for which, in test [3], the IC50 is 11.8 µM and the inhibitory constant (Ki) worked out at 3.2 µM.

B2: A. baumannii LptAm2.0 (LptAm(Ab)2.0) (domain or fragment)
chain: GLPSDRNQQISLVADRATYNEKTGLTTYTGNVVIEQGTMKLQADSIVATLNSKREIQTITAKGRPSKFQQQISADKGIARGEGQTIVYNADTGIITLSGGAYLYQDGSSIRGNTLKYSMNKGDVEAQG
Take B2: in test [4], the Kd was found to be 3.7 µM.
